Results on 10 compounds are retold here after ChEMBL document CHEMBL1146892, “Pyrrolidine bis-cyclic guanidines with antimicrobial activity against drug-resistant Gram-positive pathogens identified from a mixture-based combinatorial library” (2006).

Format in all cases: functional
Experiment [1] relates to Staphylococcus aureus. The experiment can be described thus: Antibacterial activity against methicillin-resistant Staphylococcus aureus ATCC 33591.
Experiment [2] has as its system Enterococcus faecalis. In words: Antibacterial activity against vancomycin-resistant Enterococcus faecalis ATCC 51299.
The test system of experiment [3] is Escherichia coli. The experiment can be described thus: Antibacterial activity against Escherichia coli ATCC 25922.

Converted amounts (≈) assume the structure as drawn. A value given as a limit tells only on which side of the number the result lay.

What is called MBC is the lowest tested concentration that kills the bacteria rather than only halting them. Low readings indicate greater bactericidal potency, high ones weaker bactericidal potency. The MIC is the smallest concentration in the dilution series that meets the test's criterion for growth inhibition. Low values mean a more susceptible organism, high ones a less susceptible organism.

Turning to `CC(C)Cc1ccc(C(C)CN2C(=N)N([C@H](CC3CCCCC3)CN3CCCC3CN3C(N)=NC[C@@H]3Cc3ccccc3)C[C@@H]2CC2CCCCC2)cc1` (stereo not given in full), the results for the minimum bactericidal concentration (MBC) in experiment [1], in experiment [2] and in experiment [3] were 2.5 µg/mL (≈ 3.4 µM), over 10 µg/mL and over 10 µg/mL, respectively. Besides, the minimal inhibitory concentration (MIC) was under 2.5 µg/mL in experiment [1], under 2.5 µg/mL in experiment [2] and over 10 µg/mL in experiment [3].
`N=C1N(CCc2cc(C(F)(F)F)cc(C(F)(F)F)c2)[C@@H](CC2CCCCC2)CN1[C@H](CC1CCCCC1)CN1CCCC1CN1C(N)=NC[C@@H]1Cc1ccccc1` (stereo not given in full): the minimum bactericidal concentration (MBC) is under 2.5 µg/mL in experiment [1], over 10 µg/mL in experiment [2] and over 10 µg/mL in experiment [3]. The figures for the MIC in experiment [1], in experiment [2] and in experiment [3] were under 2.5 µg/mL, 2.5 µg/mL (≈ 3.12 µM) and over 10 µg/mL, respectively.
Consider `CCCC[C@@H]1CN([C@H](CC2CCCCC2)CN2CCCC2CN2C(N)=NC[C@@H]2Cc2ccccc2)C(=N)N1CC(C)c1ccc(CC(C)C)cc1` (stereo not given in full), for which the MBC in experiment [1] is under 2.5 µg/mL; in experiment [2], under 2.5 µg/mL; in experiment [3], over 10 µg/mL. For the same compound, the MIC is under 2.5 µg/mL in experiment [1], under 2.5 µg/mL in experiment [2] and over 10 µg/mL in experiment [3].
As to `CCCC[C@@H]1CN([C@H](CC2CCCCC2)CN2CCCC2CN2C(N)=NC[C@@H]2Cc2ccccc2)C(=N)N1CCc1cc(C(F)(F)F)cc(C(F)(F)F)c1` (stereo not given in full), the MBC in experiment [1] was 2.5 µg/mL (≈ 3.28 µM); in experiment [2] it was under 2.5 µg/mL; in experiment [3], 5 µg/mL (≈ 6.56 µM). The MIC is under 2.5 µg/mL in experiment [1], under 2.5 µg/mL in experiment [2] and 5 µg/mL (≈ 6.56 µM) in experiment [3].
For the compound `N=C1N(CCc2cc(C(F)(F)F)cc(C(F)(F)F)c2)[C@H](CC2CCCCC2)CN1[C@H](CC1CCCCC1)CN1CCCC1CN1C(N)=NC[C@@H]1Cc1ccccc1` (stereo not given in full), the minimal bactericidal concentration (MBC) in experiment [1] was under 2.5 µg/mL; in experiment [2], 2.5 µg/mL (≈ 3.12 µM); in experiment [3], over 10 µg/mL. Further, the MIC was under 2.5 µg/mL in experiment [1], 2.5 µg/mL (≈ 3.12 µM) in experiment [2] and over 10 µg/mL in experiment [3].
Take `CC(C)Cc1ccc(C(C)CN2C(=N)N([C@H](CC3CCCCC3)CN3CCCC3CN3C(N)=NC[C@@H]3Cc3ccccc3)C[C@H]2CC2CCCCC2)cc1` (stereo not given in full): the MBC is under 2.5 µg/mL in experiment [1], over 10 µg/mL in experiment [2] and 5 µg/mL (≈ 6.79 µM) in experiment [3]. The minimal inhibitory concentration (MIC) is under 2.5 µg/mL in experiment [1], 2.5 µg/mL (≈ 3.4 µM) in experiment [2] and 5 µg/mL (≈ 6.79 µM) in experiment [3].
As to `CC(C)Cc1ccc(C(C)CN2C(=N)N([C@@H](CC3CCCCC3)CN3CCCC3CN3C(N)=NC[C@@H]3Cc3ccccc3)C[C@@H]2CC2CCCCC2)cc1` (stereo not given in full), the MBC was under 2.5 µg/mL in experiment [1], under 2.5 µg/mL in experiment [2] and over 10 µg/mL in experiment [3]. The MIC was under 2.5 µg/mL in experiment [1], under 2.5 µg/mL in experiment [2] and over 10 µg/mL in experiment [3].
Consider `CC(C)Cc1ccc(C(C)CN2C(=N)N([C@@H](CC3CCCCC3)CN3CCCC3CN3C(N)=NC[C@@H]3Cc3ccccc3)C[C@H]2CC2CCCCC2)cc1` (stereo not given in full), for which the MBC is under 2.5 µg/mL in experiment [1], under 2.5 µg/mL in experiment [2] and over 10 µg/mL in experiment [3]. Also, the MIC in experiment [1] is under 2.5 µg/mL; in experiment [2], under 2.5 µg/mL; in experiment [3], over 10 µg/mL.
On to `N=C1N(CCc2cc(C(F)(F)F)cc(C(F)(F)F)c2)[C@@H](CC2CCCCC2)CN1[C@@H](CC1CCCCC1)CN1CCCC1CN1C(N)=NC[C@@H]1Cc1ccccc1` (stereo not given in full), for which the minimum bactericidal concentration (MBC) in experiment [1] is under 2.5 µg/mL; in experiment [2], over 10 µg/mL; in experiment [3], over 10 µg/mL. The MIC in experiment [1] is under 2.5 µg/mL; in experiment [2], under 2.5 µg/mL; in experiment [3], over 10 µg/mL.
Regarding `N=C1N(CCc2cc(C(F)(F)F)cc(C(F)(F)F)c2)[C@H](CC2CCCCC2)CN1[C@@H](CC1CCCCC1)CN1CCCC1CN1C(N)=NC[C@@H]1Cc1ccccc1` (stereo not given in full), the minimum bactericidal concentration (MBC) in experiment [1] was under 2.5 µg/mL; in experiment [2], under 2.5 µg/mL; in experiment [3], 5 µg/mL (≈ 6.23 µM). The results for the MIC in experiment [1], in experiment [2] and in experiment [3] were under 2.5 µg/mL, under 2.5 µg/mL and 5 µg/mL (≈ 6.23 µM), respectively.
